Experimental findings from PubChem BioAssay (NCI) are described below.

SMILES strings stand for the structures.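 Assay format: 96-well plates, 48-hour exposure. Definition used: TGI = concentration required for complete inhibition of growth.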

A word on the TGI: it is the concentration giving total growth inhibition.

The test system of the first assay is LOX IMVI melanoma. As to the kind of experiment: DTP human tumour cell line panel, 48 h.
As for `O=C1C(Br)=CC2(C=C1Br)CCNC1=C2C(=O)c2ccccc2C1=O`, the TGI turned out to be 17.2 µM.
On to `CCOC(=O)c1nc2ccc(Cl)cc2c2c1Cc1ccccc1-2`, for which the TGI is > 100 µM.
In the case of `CCN(CC)CSc1nc2ccccc2s1`, the TGI is > 100 µM.

A further assay has as its system SR leukemia. As to the kind of experiment: DTP human tumour cell line panel, 48 h.
On to `O=[N+]([O-])C1C2C=CC(C2)[C@H]1c1ccco1` (stereo not given in full), for which the TGI is > 100 µM.
Same read-out and setting: the result for `CCOC(=O)c1nc2ccc(Cl)cc2c2c1Cc1ccccc1-2` reads > 100 µM.

In a further assay the test system is SF-539 CNS. The assay is described as follows: DTP human tumour cell line panel, 48 h.
As to `O=[N+]([O-])C1C2C=CC(C2)[C@H]1c1ccco1` (stereo not given in full), the TGI is > 100 µM.
On the same count and under the same terms, the figure for `Cc1c(/C=N/NC(=O)c2cc(Br)cc(Br)c2O)c(=O)n(-c2ccccc2)n1C` is > 100 µM; for `CCOC(=O)c1nc2ccc(Cl)cc2c2c1Cc1ccccc1-2` it is > 100 µM.
The same measure, in the same setting: the result for `CCN(CC)CSc1nc2ccccc2s1` reads > 100 µM.

In a further assay the test system is OVCAR-3 ovarian. The assay is described as follows: DTP human tumour cell line panel, 48 h.
For the compound `O=[N+]([O-])C1C2C=CC(C2)[C@H]1c1ccco1` (stereo not given in full), the TGI is > 100 µM.
The same measure, in the same setting: the figure for `Cc1c(/C=N/NC(=O)c2cc(Br)cc(Br)c2O)c(=O)n(-c2ccccc2)n1C` is 95.7 µM.
Still for that read-out and setting: the figure for `O=C1C(Br)=CC2(C=C1Br)CCNC1=C2C(=O)c2ccccc2C1=O` is > 100 µM.
On the same count and under the same terms, the figure for `CCOC(=O)c1nc2ccc(Cl)cc2c2c1Cc1ccccc1-2` is > 100 µM; for `CCN(CC)CSc1nc2ccccc2s1` it is > 100 µM.

The test system of another assay is HL-60(TB) leukemia. The assay is described as follows: DTP human tumour cell line panel, 48 h.
As for `O=[N+]([O-])C1C2C=CC(C2)[C@H]1c1ccco1` (stereo not given in full), the TGI was > 100 µM.
Still for that read-out and setting: the result for `Cc1c(/C=N/NC(=O)c2cc(Br)cc(Br)c2O)c(=O)n(-c2ccccc2)n1C` reads 5.97 µM; that for `O=C1C(Br)=CC2(C=C1Br)CCNC1=C2C(=O)c2ccccc2C1=O`, 13.3 µM; that for `CCN(CC)CSc1nc2ccccc2s1`, > 100 µM.

The subject of the next assay is IGROV1 ovarian. As to the kind of experiment: DTP human tumour cell line panel, 48 h.
For the compound `O=[N+]([O-])C1C2C=CC(C2)[C@H]1c1ccco1` (stereo not given in full), the TGI is > 100 µM.
Still for that read-out and setting: the figure for `O=C1C(Br)=CC2(C=C1Br)CCNC1=C2C(=O)c2ccccc2C1=O` is 83.6 µM.
Same read-out and setting: the figure for `CCOC(=O)c1nc2ccc(Cl)cc2c2c1Cc1ccccc1-2` is > 100 µM; for `CCN(CC)CSc1nc2ccccc2s1` it is > 100 µM.

The test system of the next assay is ACHN renal. As to the kind of experiment: DTP human tumour cell line panel, 48 h.
Consider `O=[N+]([O-])C1C2C=CC(C2)[C@H]1c1ccco1` (stereo not given in full), for which the TGI was > 100 µM.
On the same count and under the same terms, the figure for `Cc1c(/C=N/NC(=O)c2cc(Br)cc(Br)c2O)c(=O)n(-c2ccccc2)n1C` is > 100 µM; for `O=C1C(Br)=CC2(C=C1Br)CCNC1=C2C(=O)c2ccccc2C1=O` it is 27.9 µM.
On to `CCOC(=O)c1nc2ccc(Cl)cc2c2c1Cc1ccccc1-2`, for which the TGI was > 100 µM.

Another assay has as its system DLD-1 colon. As to the kind of experiment: DTP human tumour cell line panel, 48 h.
As to `O=[N+]([O-])C1C2C=CC(C2)[C@H]1c1ccco1` (stereo not given in full), the concentration for total growth inhibition (TGI) is > 100 µM.
The same measure, in the same setting: the result for `Cc1c(/C=N/NC(=O)c2cc(Br)cc(Br)c2O)c(=O)n(-c2ccccc2)n1C` reads > 100 µM; that for `O=C1C(Br)=CC2(C=C1Br)CCNC1=C2C(=O)c2ccccc2C1=O`, 28.4 µM.
On the same count and under the same terms, the result for `CCOC(=O)c1nc2ccc(Cl)cc2c2c1Cc1ccccc1-2` reads > 100 µM.

The next assay concerns SNB-75 CNS. The assay is described as follows: DTP human tumour cell line panel, 48 h.
With `O=[N+]([O-])C1C2C=CC(C2)[C@H]1c1ccco1` (stereo not given in full), the TGI was > 100 µM.
Still for that read-out and setting: the result for `Cc1c(/C=N/NC(=O)c2cc(Br)cc(Br)c2O)c(=O)n(-c2ccccc2)n1C` reads > 100 µM.
The same measure, in the same setting: the result for `O=C1C(Br)=CC2(C=C1Br)CCNC1=C2C(=O)c2ccccc2C1=O` reads > 100 µM; that for `CCOC(=O)c1nc2ccc(Cl)cc2c2c1Cc1ccccc1-2`, > 100 µM.
Turning to `CCN(CC)CSc1nc2ccccc2s1`, the TGI is > 100 µM.

In the next assay the test system is LXFL 529 NSCLC. As to the kind of experiment: DTP human tumour cell line panel, 48 h.
On to `O=[N+]([O-])C1C2C=CC(C2)[C@H]1c1ccco1` (stereo not given in full), for which the TGI is > 100 µM.
`Cc1c(/C=N/NC(=O)c2cc(Br)cc(Br)c2O)c(=O)n(-c2ccccc2)n1C`: the TGI is > 100 µM.
Same read-out and setting: the figure for `O=C1C(Br)=CC2(C=C1Br)CCNC1=C2C(=O)c2ccccc2C1=O` is 35.1 µM; for `CCOC(=O)c1nc2ccc(Cl)cc2c2c1Cc1ccccc1-2` it is > 100 µM.
The same measure, in the same setting: the figure for `CCN(CC)CSc1nc2ccccc2s1` is > 100 µM.

Another assay concerns SF-268 CNS. As to the kind of experiment: DTP human tumour cell line panel, 48 h.
`O=[N+]([O-])C1C2C=CC(C2)[C@H]1c1ccco1` (stereo not given in full): the TGI was > 100 µM.
As to `Cc1c(/C=N/NC(=O)c2cc(Br)cc(Br)c2O)c(=O)n(-c2ccccc2)n1C`, the TGI is > 100 µM.
On the same count and under the same terms, the result for `O=C1C(Br)=CC2(C=C1Br)CCNC1=C2C(=O)c2ccccc2C1=O` reads 63.3 µM; that for `CCOC(=O)c1nc2ccc(Cl)cc2c2c1Cc1ccccc1-2`, > 100 µM.

For the next assay, the system named is HCC-2998 colon. The assay is described as follows: DTP human tumour cell line panel, 48 h.
On to `O=[N+]([O-])C1C2C=CC(C2)[C@H]1c1ccco1` (stereo not given in full), for which the TGI is > 100 µM.
As to `Cc1c(/C=N/NC(=O)c2cc(Br)cc(Br)c2O)c(=O)n(-c2ccccc2)n1C`, the TGI was > 100 µM.
The same measure, in the same setting: the figure for `CCOC(=O)c1nc2ccc(Cl)cc2c2c1Cc1ccccc1-2` is > 100 µM.
On the same count and under the same terms, the figure for `CCN(CC)CSc1nc2ccccc2s1` is > 100 µM.

In another assay the test system is SK-MEL-5 melanoma. The assay is described as follows: DTP human tumour cell line panel, 48 h.
On to `O=[N+]([O-])C1C2C=CC(C2)[C@H]1c1ccco1` (stereo not given in full), for which the TGI was > 100 µM.
`Cc1c(/C=N/NC(=O)c2cc(Br)cc(Br)c2O)c(=O)n(-c2ccccc2)n1C`: the TGI is > 100 µM.
On the same count and under the same terms, the result for `O=C1C(Br)=CC2(C=C1Br)CCNC1=C2C(=O)c2ccccc2C1=O` reads 28.5 µM; that for `CCOC(=O)c1nc2ccc(Cl)cc2c2c1Cc1ccccc1-2`, > 100 µM; that for `CCN(CC)CSc1nc2ccccc2s1`, > 100 µM.

The next assay relates to SN12C renal. The assay is described as follows: DTP human tumour cell line panel, 48 h.
Take `O=[N+]([O-])C1C2C=CC(C2)[C@H]1c1ccco1` (stereo not given in full): the concentration for total growth inhibition (TGI) was > 100 µM.
Still for that read-out and setting: the figure for `Cc1c(/C=N/NC(=O)c2cc(Br)cc(Br)c2O)c(=O)n(-c2ccccc2)n1C` is > 100 µM; for `O=C1C(Br)=CC2(C=C1Br)CCNC1=C2C(=O)c2ccccc2C1=O` it is 19.6 µM; for `CCOC(=O)c1nc2ccc(Cl)cc2c2c1Cc1ccccc1-2` it is > 100 µM.
Consider `CCN(CC)CSc1nc2ccccc2s1`, for which the TGI is > 100 µM.

The next assay has as its system A498 renal. As to the kind of experiment: DTP human tumour cell line panel, 48 h.
On to `O=[N+]([O-])C1C2C=CC(C2)[C@H]1c1ccco1` (stereo not given in full), for which the TGI was > 100 µM.
On the same count and under the same terms, the figure for `Cc1c(/C=N/NC(=O)c2cc(Br)cc(Br)c2O)c(=O)n(-c2ccccc2)n1C` is > 100 µM.
